What was measured:
[1] = test system: HT-29 human colorectal cancer cell derived xenografts (CDX); assay: Efficacy in HT-29 CDX model of colorectal cancer; assay type: in vivo, BALB/c nude mice
Text: The endpoint for each individual mouse was reached when the mouse weight decreased by 20%.

A375 cells = assay: A375 cell growth inhibition; assay type: cell-based; settings: Homo sapiens, A-375, 96 hr
[2] = Wet granulation simulation experiments; assay type: physicochemical
Experimental: Water or ethanol was added drop wise to about 20 mg of Compound 1 Form B until the sample was wetted sufficiently. Wet sample was ground gently with in a mortar and a pestle. Post granulation sample was dried under ambient condition for 10 min. Potential form change and degree of crystallinity were evaluated by XRPD.

[3] = Stability study for Compound 1 Form A (storage conditions); assay type: physicochemical
[4] = Crystallization at room temperature by slow evaporation; assay type: physicochemical
Experimental: About 30 mg of Compound 1 Form A was dissolved in 0.2-10 mL of solvents. Obtained solutions were filtered through a 0.45 μm syringe membrane filter. […] Solid residues were investigated by XRPD.

[5] = Equilibration under a temperature cycle (XRPD); assay type: physicochemical
Experimental: The equilibration was executed with a stirring bar on a magnetic stirring plate at a rate of 300 rpm. The obtained suspensions were filtered through a 0.45 µm nylon membrane filter by centrifugation at 14,000 rpm. Solid parts (wet cakes) were investigated by XRPD.

[6] = Crystallization by vapor diffusion; assay type: physicochemical
Experimental: About 50 mg of Compound 1 Form A was dissolved in the minimal amount of selected solvents at ambient temperature (about 20-25° C.). Obtained solutions were filtered through a 0.45 μm syringe membrane filter. […] Then these 8 mL lid less vials were placed to 40 mL glass vials. To the 40 mL vials were added anti-solvents. Then these 40 mL vials were capped tightly and placed at ambient condition for up to 21 days. Precipitates were collected by centrifugation filtration through a 0.45 μm nylon membrane filter at 14,000 rpm. Solid parts (wet cakes) were investigated by XRPD.

[7] = Salt screening by re-slurry; assay type: physicochemical
[8] = 25° C. ± 2° C./60% RH ± 5% RH, 3 M
[9] = 25° C. ± 2° C./60% RH ± 5% RH, 6 M
[10] = 40° C. ± 2° C./75% RH ± 5% RH, 3 M
[11] = 40° C. ± 2° C./75% RH ± 5% RH, 6 M
[12] = Acetone, temperature cycle 5° C. to 40° C.
[13] = Acetonitrile, temperature cycle 5° C. to 40° C.
[14] = DMF, temperature cycle 5° C. to 40° C.
[15] = Ethyl acetate, temperature cycle 5° C. to 40° C.
[16] = Isopropanol, temperature cycle 5° C. to 40° C.
[17] = Isopropyl acetate, temperature cycle 5° C. to 40° C.
[18] = Methanol, temperature cycle 5° C. to 40° C.
[19] = THF/heptane (v:v = 1:1), temperature cycle 5° C. to 40° C.
[20] = Toluene, temperature cycle 5° C. to 40° C.
[21] = temperature cycle, Acetone/water (v:v = 86:14) a.w. = 0.6
[22] = temperature cycle, Acetonitrile/water (v:v = 96:4) a.w. = 0.65
[23] = temperature cycle, DCM/methanol (v:v = 1:1)
[24] = temperature cycle, DMF/water (v:v = 30:70) a.w. = 0.9
[25] = temperature cycle, DMF/water (v:v = 73:27) a.w. = 0.6
[26] = temperature cycle, DMSO/water (v:v = 23:77) a.w. = 0.9
[27] = temperature cycle, DMSO/water (v:v = 57:43) a.w. = 0.6
[28] = temperature cycle, Methanol/water (v:v = 69:31) a.w. = 0.6
[29] = temperature cycle, THF/water (v:v = 82:18) a.w. = 0.9
[30] = temperature cycle, THF/water (v:v = 92:8) a.w. = 0.6

CCN(C)S(=O)(=O)Nc1ccc(F)c(Oc2ccc3ncn([C@H]4COC5(CCN(C(=O)CC6(O)CCN(c7cc8c(cc7F)c(N7CCC(=O)NC7=O)nn8C)CC6)CC5)C4)c(=O)c3c2)c1C#N [Compound 1, (3R)-3-[6-[2-cyano-3-[[ethyl(methyl)sulfamoyl]amino]-6-fluorophenoxy]-4-oxoquinazolin-3-yl]-8-[2-[1-[3-(2,4-dioxo-1,3-diazinan-1-yl)-5-fluoro-1-methylindazol-6-yl]-4-hydroxypiperidin-4-yl]acetyl]-1-oxa-8-azaspiro[4.5]decane]
Tumor response at end of study ([1]; 10 mg/kg PO BID plus cetuximab 11 mg/kg IP Q3D): tumor regression | Tumor response at end of study ([1]; 10 mg/kg PO BID, without cetuximab): tumor regression | GI50 (A375 cells): 94 nM

CCN(C)S(=O)(=O)Nc1ccc(F)c(Oc2ccc3ncn([C@H]4COC5(CCN(C(=O)CC6(O)CCN(c7cc8c(cc7F)c(N7CCC(=O)NC7=O)nn8C)CC6)CC5)C4)c(=O)c3c2)c1C#N [Compound 1 Form B]
XRPD after wet granulation ([2]; granulation solvent Ethanol): Form B; no crystallinity decrease. | XRPD after wet granulation ([2]; granulation solvent Water): Form B; no crystallinity decrease. | Crystallinity change after wet granulation ([2]; in the presence of water or ethanol): no changes in crystallinity

CCN(C)S(=O)(=O)Nc1ccc(F)c(Oc2ccc3ncn([C@H]4COC5(CCN(C(=O)CC6(O)CCN(c7cc8c(cc7F)c(N7CCC(=O)NC7=O)nn8C)CC6)CC5)C4)c(=O)c3c2)c1C#N [Compound 1 Form A]
Appearance ([3]; 5 ± 3° C., 6 M): white solid | Assay by UPLC (% w/w) ([3]; 5 ± 3° C., 6 M): 92.0% w/w | Chiral purity by HPLC (% area) ([3]; 5 ± 3° C., 6 M): 99.2% area | Related Substances by UPLC (% area), Total Impurities ([3]; 5 ± 3° C., 6 M): 2.8% area | Water Content by KF (% w/w) ([3]; 5 ± 3° C., 6 M): 4.7% w/w | XRPD ([3]; 5 ± 3° C., 6 M): Form A | Stability study outcome (appearance, water content, chiral purity, assay, related substance) ([3]; 5 ± 3° C., 25° C./60% RH, 30° C./65% RH, 40° C./75% RH): meet the acceptance criteria | Assay by UPLC (% w/w) [3, 8]: 93.3% w/w | Chiral purity by HPLC (% area) [3, 8]: 99.2% area | Related Substances, UPLC (% area), Total Impurities [3, 8]: 2.6% area | Water Content by KF (% w/w) [3, 8]: 3.6% w/w | XRPD [3, 8]: Form A | Assay by UPLC (% w/w) [3, 9]: 92.9% w/w | Chiral purity by HPLC (% area) [3, 9]: 99.2% area | Related Substances, UPLC (% area), Total Impurities [3, 9]: 2.9% area | Water Content by KF (% w/w) [3, 9]: 4.2% w/w | XRPD [3, 9]: Form A | Appearance ([3]; 30 ± 2° C./65 ± 5% RH, 6 M): white solid | Assay by UPLC (% w/w) ([3]; 30 ± 2° C./65 ± 5% RH, 6 M): 92.4% w/w | Chiral purity by HPLC (% area) ([3]; 30 ± 2° C./65 ± 5% RH, 6 M): 99.2% area | Related Substances, UPLC (% area), Total Impurities ([3]; 30 ± 2° C./65 ± 5% RH, 6 M): 3.0% area | Water Content by KF (% w/w) ([3]; 30 ± 2° C./65 ± 5% RH, 6 M): 3.8% w/w | XRPD ([3]; 30 ± 2° C./65 ± 5% RH, 6 M): Form A | Assay by UPLC (% w/w) [3, 10]: 92.2% w/w | Chiral purity by HPLC (% area) [3, 10]: 99.2% area | Related Substances, UPLC (% area), Total Impurities [3, 10]: 2.7% area | Water Content by KF (% w/w) [3, 10]: 3.9% w/w | XRPD [3, 10]: Form A | Assay by UPLC (% w/w) [3, 11]: 92.5% w/w | Chiral purity by HPLC (% area) [3, 11]: 99.2% area | Related Substances, UPLC (% area), Total Impurities [3, 11]: 3.3% area | Water Content by KF (% w/w) [3, 11]: 4.5% w/w | XRPD [3, 11]: Form A | Appearance ([3]; Initial): white solid | Assay by UPLC (% w/w) ([3]; Initial): 97.3% w/w | Chiral purity by HPLC (% area) ([3]; Initial): 99.2% area | Related Substances by UPLC (% area), Total Impurities ([3]; Initial): 2.6% area | Water Content by KF (% w/w) ([3]; Initial): 0.59% w/w | XRPD ([3]; Initial): Form A | Water content trend ([3]; each stability condition): increased overtime | Comments ([4]; 1,4-Dioxane): Glassy material | Comments ([4]; Acetone): Glassy material | XRPD ([4]; Acetonitrile): Amorphous form | XRPD ([4]; DCM): Almost amorphous form | XRPD ([4]; DCM/methanol (v:v = 1:1)): Almost amorphous form | XRPD ([4]; Ethyl acetate): Amorphous form | XRPD ([4]; Methanol): Almost amorphous form | Comments ([4]; Methyl ethyl ketone): Glassy material | Comments ([4]; THF): Glassy material | Comments ([5]; 1,4-Dioxane/heptane (v:v = 1:1), temperature cycle 5° C. to 40° C.): Sticky material | XRPD (solid form after equilibration) ([5]; 2-MeTHF, temperature cycle 5° C. to 40° C., about 20 cycles): Form C (about 20 | Comments ([5]; 2-MeTHF, temperature cycle 5° C. to 40° C., after about 8 more cycles): Form C converted | Comments [5, 12]: Low crystallinity | XRPD (solid form after equilibration) [5, 12]: Form B | Comments (crystallinity) [5, 13]: Medium | XRPD (solid form after equilibration) [5, 13]: Form B | Comments ([5]; DCM/heptane (v:v = 1:1), temperature cycle 5° C. to 40° C.): Sticky material | Comments [5, 14]: Clear solution | Comments: concentration of clear solution [5, 14]: (About 500 mg/mL) | XRPD (solid form after equilibration) ([5]; Ethanol, temperature cycle 5° C. to 40° C.): Almost amorphous | Comments [5, 15]: Low crystallinity | XRPD (solid form after equilibration) [5, 15]: Form B | Comments [5, 16]: Low crystallinity | XRPD (solid form after equilibration) [5, 16]: Form A | Comments [5, 17]: Low crystallinity | XRPD (solid form after equilibration) [5, 17]: Form A | XRPD (solid form after equilibration) ([5]; MTBE, temperature cycle 5° C. to 40° C.): Almost amorphous | Comments [5, 18]: Low crystallinity | XRPD (solid form after equilibration) [5, 18]: Form B | XRPD (solid form after equilibration) ([5]; Methyl ethyl ketone, temperature cycle 5° C. to 40° C.): Almost amorphous | Comments [5, 19]: Low crystallinity | XRPD (solid form after equilibration) [5, 19]: Form B | Comments [5, 20]: Low crystallinity | XRPD (solid form after equilibration) [5, 20]: Form A | Comments ([5]; temperature cycle, Acetone/water (v:v = 36:64) a.w. = 0.9): Sticky material | Comments [5, 21]: Clear solution | Comments: concentration of clear solution [5, 21]: (About 500 mg/mL) | Comments ([5]; temperature cycle, Acetonitrile/water (v:v = 42:58) a.w. = 0.9): Sticky material | Comments [5, 22]: Medium crystallinity | XRPD [5, 22]: Form B** | Comments [5, 23]: Clear solution | Comments: concentration of clear solution [5, 23]: (About 500 mg/mL) | Comments [5, 24]: Low crystallinity | XRPD [5, 24]: Form B | Comments [5, 25]: Medium crystallinity | XRPD [5, 25]: Form B | Comments [5, 26]: Low crystallinity | XRPD [5, 26]: Form A | Comments [5, 27]: Low crystallinity | XRPD [5, 27]: Form A | Comments [5, 28]: Low crystallinity | XRPD [5, 28]: Form B | Comments [5, 29]: Clear solution | Comments: concentration of clear solution [5, 29]: (About 500 mg/mL) | Comments [5, 30]: Clear solution | Comments: concentration of clear solution [5, 30]: (About 500 mg/mL) | Results ([6]; 2-MeTHF (8.0) / MTBE (32.0) mL): Few solids | Results ([6]; Acetone (2.5) / MTBE (10.0) mL): Oil material | Results ([6]; Acetonitrile (3.0) / MTBE (12.0) mL): Oil material | Results ([6]; DMSO (0.2) / Ethanol (0.8) mL): Oil material | Re-slurry result ([7]; Ca(OH)2, Ethyl Acetate): Almost amorphous | Re-slurry result ([7]; Choline, Ethyl Acetate): Sticky material | Re-slurry result ([7]; Choline, MTBE): Sticky material | Re-slurry result ([7]; Choline, Toluene): Sticky material | Re-slurry result ([7]; Methylglucamine, Ethyl Acetate): Form A

Source: patent US20250289827A1, “MORPHIC FORMS OF A MUTANT BRAF DEGRADER AND METHODS OF MANUFACTURE THEREOF” (C4 THERAPEUTICS, INC., priority 2022, published 2025)
